Source: patent US20040142887A1, “Antigen-polymer compositions” (priority 2002, published 2004)
≈ marks a conversion by molar mass, not a printed value.

Key:
[1] = not given; remark: listed apart in the source

With CC[C@H](C)[C@H](NC(=O)CNC(=O)[C@@H](NC(=O)[C@H](Cc1ccccc1)NC(=O)[C@H](CCCCN)NC(=O)[C@H](CO)NC(=O)[C@H](CC(N)=O)NC(=O)[C@H](C)NC(=O)[C@H](CCCCN)NC(=O)[C@@H](NC(=O)[C@H](Cc1ccc(O)cc1)NC(=O)[C@H](CCC(N)=O)NC(=O)[C@@H](N)CS)[C@@H](C)CC)[C@@H](C)CC)C(=O)N[C@H](C(=O)N[C@@H](CCC(=O)O)C(=O)N[C@@H](CC(C)C)C(=O)N[C@@H](CC(=O)O)C(=O)N[C@@H](CC(=O)O)C(=O)N1CCC[C@H]1C(=O)N[C@@H](CCCNC(=N)N)C(=O)N[C@@H](Cc1ccccc1)C(=O)N[C@@H](CCC(N)=O)C(=O)N[C@@H](CC(=O)O)C(=O)N[C@@H](CO)C(=O)N[C@@H](CO)C(=O)N[C@@H](CO)C(=O)N[C@@H](CO)C(=O)N[C@@H](CCCCN)C(=O)N[C@@H](C)C(=O)N1CCC[C@H]1C(=O)N1CCC[C@H]1C(=O)N1CCC[C@H]1C(=O)N[C@@H](CO)C(=O)N[C@@H](CC(C)C)C(=O)N1CCC[C@H]1C(=O)N[C@@H](CO)C(=O)N1CCC[C@H]1C(=O)N[C@@H](CO)C(=O)N[C@@H](CCCNC(=N)N)C(=O)N[C@@H](CC(C)C)C(=O)N1CCC[C@H]1C(=O)NCC(=O)N1CCC[C@H]1C(=O)N[C@@H](CO)C(=O)N[C@@H](CC(=O)O)C(=O)N[C@H](C(=O)N1CCC[C@H]1C(=O)N[C@H](C(=O)N[C@@H](CC(C)C)C(=O)N1CCC[C@H]1C(=O)N[C@@H](CCC(N)=O)C(=O)O)[C@@H](C)CC)[C@@H](C)O)[C@@H](C)O [CTP37-TT2] as the compound, how does the solubility read?
The solubility was about 70 mg/mL (≈ 12.8 mM).

And the “stability to hydrolysis in solution” value ([1]; pH 1)?
Its value is “stable to hydrolysis except when the pH was very low (1-2)”.

And the “peptide remaining soluble at acidic pH” value ([1]; pH 1.4)?
Its value is “all peptides remained soluble”.
